Publication PMC7577153, “Identification of Small-Molecule Inhibitors Targeting Porphyromonas gingivalis Interspecies Adherence and Determination of Their In Vitro and In Vivo Efficacies” (Antimicrobial Agents and Chemotherapy, 2020)

Experiments:
[1] = test system: J774A.1 cells; assay: total cellular ATP (CellTiterGlo); type: cell-based, mouse; settings: J774A.1 cells, 5, 20 and 40 μM, 18 h
Description: (§1) To determine the metabolic activity of cells, the total cellular ATP level was measured in cell culture samples using the CellTiterGlo reagent (Promega Inc. Madison, WI). Cells were grown as described above in the presence of the desired concentration of compounds. The spent medium was decanted, and cells were washed three times with PBS and subsequently incubated with 100 μl of the CellTiterGlo substrate. To facilitate the reaction, plates were incubated at room temperature for 2 min with shaking and for an additional 10 min without shaking. Total light production was measured using a Victor 3 multilabel plate reader (PerkinElmer).

[2] = test system: HL60 cells; assay: total cellular ATP (CellTiterGlo); type: cell-based, human; settings: HL-60 cells, 5, 20 and 40 μM, 18 h
Description: as §1

Row | Structure (SMILES) | ATP levels [1] | ATP levels [2]
1 | O=C(Nc1ccccc1O)c1cccc(N2C(=O)c3ccc(C(=O)Nc4ccccc4O)cc3C2=O)c1 [N17, N-(2-hydroxyphenyl)-2-{3-[(2-hydroxyphenyl)carbamoyl]phenyl}-1,3-dioxo-2,3-dihydro-1H-isoindole-5-carboxamide] | no significant effect | no significant effect
2 | Cc1cc([C@H]2CCCN(CC(=O)NC3(C#N)CCCC3)C2)n[nH]1 [V8, N-(1-cyanocyclopentyl)-2-[3-(5-methyl-1H-pyrazol-3-yl)piperidin-1-yl] acetamide] | no significant effect | no significant effect
